Reference: US4255575A, “2-Hydroxy-5-(1-hydroxy-2-piperazinylethyl)-benzoic acid derivatives” (priority 1979, dated 1981)

Tests used:
α-adrenergic receptor [1] = test: α-adrenergic receptor blocking activity in vitro, isolated rabbit aortic strip, norepinephrine agonist; format: cell-based
Experimental: (§1) α-Adrenergic receptor blocking activity is determined in vitro by performing cumulative dose-response experiments in the isolated rabbit aortic strip preparation using norepinephrine as the agonist. The contractile response of the rabbit strip preparation in the presence of logarithmically increasing concentrations of the compounds being tested are expressed as percent of the maximal attainable […]. Relative antagonistic potency is expressed as a pA2 value.

β-adrenergic receptor = molecular target: T1, β-adrenergic receptor (Cavia porcellus, UniProt H0W3H1); test: β-adrenergic receptor blocking activity in vitro, isolated guinea pig atria, isoproterenol agonist; format: cell-based; settings: for Kb: read-out: pA2 β (converted)
T1 construct: isolated guinea pig atria preparation; from tissue; host or cells: isolated guinea pig atria
Experimental: as §1
β-Adrenergic receptor blocking activity is determined in vitro by performing cumulative dose-response experiments in the isolated guinea pig atria preparation using isoproterenol as the agonist. The response (increase in rate) of the guinea pig atria preparation in the presence of logarithmically increasing concentrations of the compounds being tested are expressed as percent of the maximal attainable response. Relative antagonistic potency is expressed as a pA2 value, as defined above.

guinea pig ileum = test: direct spasmolytic activity in vitro, isolated guinea pig ileum, barium chloride agonist; format: cell-based
Experimental: as §1, with “value. […] Direct spasmolytic activity is determined in vitro by performing cumulative dose response experiments in the isolated guinea pig ileum preparation using barium chloride as the agonist. The contractile response of the guinea pig ileum preparation in the presence of logarithmically increasing concentrations of the compounds being tested are expressed as percent of the maximal attainable response. Relative antagonistic potency is expressed as a pA2 value, as defined above.” for “value.”

[2] = tested on: spontaneously hypertensive rats (SHR); test: antihypertensive activity in spontaneously hypertensive rats, systolic blood pressure; format: in vivo, rat; settings: 50 mg/kg per os
Experimental: Antihypertensive activity is determined in spontaneously hypertensive rats (SHR) of the Okomoto-Aoki strain. Systolic blood pressure of the SHR is measured from the caudal artery by means of an indirect method utilizing a photocell transducer/tail cuff occluder system. Time response relationships are determined for each compound following an oral dose of 50 mg/kg. Data are expressed as mm of Hg decrease from control values. Statistical significance is determined using a 2 tailed "t" test comparing drug treatment response values to those obtained from concurrent vehicle treated animals.

α-adrenergic receptor [3] = test: α-adrenergic receptor blocking activity in vivo, anesthetized dog, phenylephrine agonist; settings: iv
Experimental: (§2) α-Adrenergic receptor blocking activity is determined in vivo by performing cumulative dose-response experiments in the anesthetized dog using phenylephrine as the agonist. The increase in diastolic blood pressure produced by phenylephrine is determined in the absence and again in the presence of logarithmically increasing doses of the test compound. Relative antagonistic potency is expressed as DR10. DR10 is defined as the negative logarithm of the dose of the antagonist which increased by 10 times the dose of agonist necessary to produce 50% of the maximal attainable response.

[4] = tested on: β-adrenergic receptor (β1); test: β-adrenergic receptor blocking activity in vivo, isoproterenol agonist, increase in cardiac rate (β1); settings: anesthetized dog, iv
Experimental: as §2, with “response. […] Two responses, increase in cardiac rate (β1) and decrease in diastolic blood pressure (β2) are measured.” for “response.”

[5] = tested on: β-adrenergic receptor (β2); test: β-adrenergic receptor blocking activity in vivo, isoproterenol agonist, decrease in diastolic blood pressure (β2); settings: anesthetized dog, iv
Experimental: as §2, with “response. […] Two responses, increase in cardiac rate (β1) and decrease in diastolic blood pressure (β2) are measured.” for “response.”

T1 sequence (H0W3H1 1-470): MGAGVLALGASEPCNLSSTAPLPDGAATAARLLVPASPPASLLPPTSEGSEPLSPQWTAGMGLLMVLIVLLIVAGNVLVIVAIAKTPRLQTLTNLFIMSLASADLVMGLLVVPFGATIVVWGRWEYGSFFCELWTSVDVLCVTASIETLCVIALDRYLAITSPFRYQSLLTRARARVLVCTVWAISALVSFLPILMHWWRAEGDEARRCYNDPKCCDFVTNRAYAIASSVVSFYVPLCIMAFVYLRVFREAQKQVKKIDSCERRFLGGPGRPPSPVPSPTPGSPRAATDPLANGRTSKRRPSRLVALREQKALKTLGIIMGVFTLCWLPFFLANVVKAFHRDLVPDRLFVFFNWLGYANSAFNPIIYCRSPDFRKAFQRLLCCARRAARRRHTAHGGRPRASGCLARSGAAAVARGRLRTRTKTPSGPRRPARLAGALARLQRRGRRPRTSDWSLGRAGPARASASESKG

SMILES | pA2 α (α-adrenergic receptor [1]) | pA2 β (β-adrenergic receptor) | pA2 BaCl2 (guinea pig ileum) | Fall in Blood Pressure After: 1 hour [2] [mm Hg] | Fall in Blood Pressure After: 4 hours [2] [mm Hg] | DR10 (α) (α-adrenergic receptor [3]) [mg/kg iv] | Kb (β-adrenergic receptor) [nM] | DR10 (β1), increase in cardiac rate [4] [mg/kg iv] | DR10 (β2), decrease in diastolic blood pressure [5] [mg/kg iv]
CNC(=O)c1cc(C(O)CN2CCN(c3ccccc3OC)CC2)ccc1O.Cl.O (stereo not drawn) [Compound 10, 2-hydroxy-5-[1-hydroxy-2-[4-(2-methoxyphenyl)-1-piperazinyl]ethyl]-N-methylbenzamide monohydrochloride monohydrate] | 7.95 | stimulant | 5.02 | 44 | 52 |  |  |  | 
Cc1ccc(N(CC2=NCCN2)c2cccc(O)c2)cc1 [phentolamine, reference compound] |  |  |  |  |  | 2.65 |  |  | 
CC(CCc1ccccc1)NC(C)C(O)c1ccc(O)cc1 (stereo not drawn) [nylidrine, reference compound] |  | stimulant |  |  |  |  |  |  | 
Cc1ccccc1N1CCN(CC(O)c2ccc(O)c(-c3nnn[nH]3)c2)CC1.Cl.O (stereo not drawn) [Compound 14, α-(4-Hydroxy-3-1H-tetrazol-5-ylphenyl)-4-(2-methylphenyl)-1-piperazineethanol Monohydrochloride Monohydrate] | 7.56 |  | < 4 | 48 |  |  | 724 |  | 
Cl.NC(=O)c1cc(C(O)CN2CCN(c3ccccc3)CC2)ccc1O.O (stereo not drawn) [Compound 6, 2-hydroxy-5-[1-hydroxy-2-(4-phenyl-1-piperazinyl)ethyl]benzamide monohydrochloride hydrate] | 7.04 | stimulant | 4.19 |  |  |  |  |  | 
Cl.NC(=O)c1cc(C(O)CN2CCN(c3cccc(C(F)(F)F)c3)CC2)ccc1O (stereo not drawn) [Compound 3, 2-hydroxy-5-[1-hydroxy-2-[4-[3-(trifluoromethyl)phenyl]-1-piperazinyl]ethyl]benzamide monohydrochloride] | 6.33 |  | 5.74 |  |  |  | 126 |  | 
Cc1ccccc1N1CCN(CC(O)c2ccc(O)c(C(N)=O)c2)CC1.Cl (stereo not drawn) [Compound 2, 2-hydroxy-5-[1-hydroxy-2-[4-(2-methylphenyl)-1-piperazinyl]ethyl]benzamide monohydrochloride] | 7.57 |  | 5.73 | 48 | 37 | 1.09 | 200 | 15.3 | > 10
COc1ccccc1N1CCN(CC(O)c2ccc(O)c(C(N)=O)c2)CC1.Cl (stereo not drawn) [Compound 7, 2-hydroxy-5-[1-hydroxy-2-[4-(2-methoxyphenyl)-1-piperazinyl]ethyl]benzamide monohydrochloride] | 7.42 |  | 4.87 | 45 | 35 |  | 363 |  | 
Cl.NC(=O)c1cc(C(O)CN2CCN(c3ccccn3)CC2)ccc1O.O (stereo not drawn) [Compound 8, 2-hydroxy-5-[1-hydroxy-2-[4-(2-pyridinyl)-1-piperazinyl]ethyl]benzamide monohydrochloride hydrate] | 6.08 |  | 3.90 |  |  |  | 4270 |  | 
COc1ccc(N2CCN(CC(O)c3ccc(O)c(C(N)=O)c3)CC2)cc1.Cl.Cl (stereo not drawn) [Compound 4, 2-hydroxy-5-[1-hydroxy-2-[4-(4-methoxyphenyl)-1-piperazinyl]ethyl]benzamide dihydrochloride] | 6.13 |  | < 4.28 |  |  |  | 1450 |  | 
CNC(=O)c1cc(C(O)CN2CCN(c3ccc(OC)cc3)CC2)ccc1O.Cl.O (stereo not drawn) [Compound 9, 2-hydroxy-5-[1-hydroxy-2-[4-(4-methoxyphenyl)-1-piperazinyl]ethyl]-N-methylbenzamide monohydrochloride hydrate] | 5.47 |  | 4.82 |  |  |  | 6760 |  | 
CCOc1ccc(C(O)CN2CCN(c3ccccc3)CC2)cc1C(N)=O.Cl (stereo not drawn) [Compound 13, 2-ethoxy-5-[1-hydroxy-2-(4-phenyl-1-piperazinyl)ethyl]benzamide monohydrochloride] | 6.27 |  | 4.67 |  |  |  | 5370 |  | 
COc1ccc(C(O)CN2CCN(c3ccccc3)CC2)cc1C(N)=O.Cl (stereo not drawn) [Compound 12, 5-[1-hydroxy-2-(4-phenyl-1-piperazinyl)ethyl]-2-methoxybenzamide monohydrochloride] | 6.54 |  | 4.19 | 33 | 25 |  | > 10000 |  | 
Cl.NC(=O)c1cc(C(O)CN2CCN(c3ccc(Cl)cc3)CC2)ccc1O.O (stereo not drawn) [Compound 5, 5-[2-[4-(4-chlorophenyl)-1-piperazinyl]-1-hydroxyethyl]-2-hydroxybenzamide monohydrochloride, monohydrate] | 6.87 |  | 4.58 | 49 | 56 |  | 676 |  | 
Cc1ccccc1N1CCN(CC(O)c2ccc(O)c(C(=O)NCC(C)(C)C)c2)CC1.Cl (stereo not drawn) [Compound 11, N-(2,2-dimethylpropyl)-2-hydroxy-5-[1-hydroxy-2-[4-(2-methylphenyl)-1-piperazinyl]ethyl]benzamide monohydrochloride] | 7.21 |  | 6.65 | 41 | 32 |  | 468 |  | 
COC(=O)c1cc(C(O)CN2CCN(c3ccccc3C)CC2)ccc1O.Cl (stereo not drawn) [Compound 1, methyl 2-hydroxy-5-[1-hydroxy-2-[4-(2-methylphenyl)-1-piperazinyl]ethyl]benzoate hydrochloride] | 7.45 |  | 6.06 |  |  |  | 162 |  | 
